The values that follow come from patent US20230414715A1, “TRAIL COMPOUNDS FOR REDUCING CANCER TREAMENT SIDE EFFECTS” (BROWN UNIVERSITY, priority 2022, published 2023).

In this test the test system is DR5-/- mice. The experiment in a line: Radiation pneumonitis after whole-thorax x-ray irradiation, H&E of lung, DR5-null mice. In kind it is in vivo, mouse. The note with it: 20 Gy. On the procedure: However, before embarking on the planned experiment, we decided to perform a preliminary, short-term treatment feasibility experiment to ensure some mouse survival after 20 Gy of thoracic irradiation (FIG. 1B). The preliminary experiment was performed with WT and DR5-null mice that were irradiated with 20 Gy, and this was followed by either weekly doses of TIC10/ONC201 (100 mg/kg for total of two doses) or twice a week doses of TLY012 (10 mg/kg for total of four doses) for 2 weeks.
Animal studies were carried out at Brown University facilities with approval from Brown University IACUC. C57B1/6 mice (Taconic), mice with bi-allelic loss of TRAIL Death Receptor-(DR5-/-) in a C57B1/6 background, and mice with bi-allelic loss of TRAIL (TRAIL -/-) in a C57B1/6 background were given a single whole-thorax x-ray (Philips RT250) irradiation dose of 20 Gy with shielding of other organs. 8-15-week-old male and female mice of each genotype were used. […] Treatment was continued for two weeks, where TLY012 was administered twice a week and ONC201 was administered once a week. For each genetic background, two mice received a control PO, two mice received TLY012 IP, and two mice received ONC201 PO. Mice were weighed twice a week, and 13 days post-irradiation all mice were euthanized. Organs were harvested from the mice and 600 μL of blood was collected via cardiac puncture for serum cytokine analysis. […]

As for “TLY012: N-terminal PEGylated recombinant human TRAIL; PEGylated trimeric TRAIL formulation”, the “rescue from radiation pneumonitis” value (DR5-/- mice, FIG. 2A, B) is on record as “did not observe rescue”. Further, the protection from pneumonitis result (DR5-null mice, preliminary experiment, 2 weeks treatment, FIG. 1C) is “lack of protection”.
